Measured values reported in patent US6642215B2 (Leo Pharma A/S, priority 2001, dated 2003).
Like-named read-outs stand apart in the source and are kept apart here.

Assays:
IκBα, IκBβ = assay: Western blotting of LPS-induced IκB degradation in THP-1 cells; format: cell-based, human; conditions: 1 μM compound 24 h before 1 μg/ml LPS for 10 to 30 min, versus DMSO-treated cells
Method: Western blotting: THP-1 cells (5×10^6 cells) were starved overnight at 37° C., 5% CO2 in starvation medium (RPMI 1640 with 2% FBS) including 1 μM of compound A or 0.01% DMSO. The cells were hereafter stimulated with 1 μg/ml LPS (E. coli serotype 055: B5, Sigma-Aldrich Danmark AS, Vallensbaek Strand, Denmark) at the indicated times. Whole cell extracts were prepared in lysis buffer (50 mM HEPES, pH 7.5, 150 mM NaCl, 10 mM EDTA, 10 mM Na4P2O7, 100 mM NaF, 2 mM Na3VO4, 1% Triton-X-100, 0.5 mM Pefabloc (Boehringer Mannheim GmbH, Mannheim, Germany), […]).
A 3×SDS-sample buffer (125 mM Tris/HCl pH 6.8, 4% SDS, 20% glycerol, 0.025% bromphenol blue, 10% DTT) was added to 200 μl of clarified cell lysate, and the sample (20 μl) was boiled and electrophoresed on a 12% SDS-polyacrylamide gel. The primary antibodies (anti-IκBα, anti-IκBβ, anti-cdk-7; all from Santa Cruz Biotechnology Inc., Heidelberg, Germany) were diluted 1:1000. The secondary antibody (anti-rabbit-HRP from DAKO A/S, Glostrup, Denmark) was used in a 1:2000 dilution. […] The relative amounts of the transferred proteins were quantified by using the ImageQuant Software (Molecular Dynamics, Sunnyvale, Calif., USA) by scanning the autoradiographic films and normalized to the related cdk-7 amounts.

NYH SCLC cells = assay: DNA synthesis (tritiated thymidine incorporation) in NYH SCLC cells; format: cell-based
Method: (§1) DNA synthesis: NYH SCLC, HT-1080, Colo-320, PC-3 and H460 cells (7.5×10^3 cells/ml) were seeded in tissue culture vessels and the test compound were added 2 h after plating. Following an incubation for 144 h tritiated thymidine (5 CI/mmol, Amersham Pharmacia Biotech) was added to the culture at the concentration of 1 μCi/ml, and the cells were incubated for additional 4 h. The incorporated thymidine was measured with a β-counter. Each compound concentration was tested in triplicate.

HT 1080 Xenografts = assay: HT 1080 xenografts in nude mice, tumour growth; format: in vivo, NMRI nu/nu mice; conditions: HT-1080 xenograft, 50 mg/kg, oral gavage
Method: (§2) All of the animal experiments were conducted according to the guidelines and ethical standards of the Danish Committee for Animal Experiments. Female NMRI nu/nu mice 6 weeks of age were purchased from M&B (Ry, Denmark). The mice were allowed an acclimatisation period of 1-3 weeks before start of the experiments. The nude mice were housed in Scantainers under semi-sterile conditions and all handling of mice was performed in a laminar flow bench.
HT 1080 Xenografts. NMRI nu/nu mice were injected with 2×10^6 cells in 0.2 ml media s.c. in each flank and tumour size was measured as described for the NYH model. Compound A was given for fourteen days by oral gavage from day 4 when the tumour size was 22-24 mm^2. Each treatment group consisted of 10 mice.
(§3) Statistical Methods In the animal models, tumour sizes were expressed by the mean of the trends in each treatment group. The trend is the linear increment or tumour size, where tumour size is the square root of the (mean) area of the tumour(s). Comparison with controls was expressed as T/C % and calculated as follows:
A=(overall mean tumour size at baseline+mean trend of treatment*intended days of treatment) […]
Overall mean tumour size at baseline=pooling all treatments this is the mean of all baseline values. For each mouse the baseline value is calculated as the square root of the (mean) area of the tumour(s). […]

NF-κB = assay: NF-κB-dependent luciferase assay in Colo-320 cells, TNF-α stimulation; format: cell-based, human; conditions: Homo sapiens, compound 24 h before TNF-α 50 ng/ml 6 h, mean ± SD
Method: The NF-κB-luciferase reporter plasmid (pBIIX) and pRL-TK control vector described in Example 1 were used for the luciferase assay,
The Colo-320 cells were seeded with a density of 5×10^4 cells/cm^2 in 6-well plates (NUNC). The following day, the cells were co-transfected with construct DNA and pRL-TK using FuGene Transfection Reagent (Boehringer Mannheim). A mixture of 5 μl Fugene and 95 μl serum free medium (per well) was prepared and incubated for 5 min at room temperature. Then, the mixture was transferred to a mixture of construct DNA (2.5 μg per well) and pRL-TK vector (0.25 μg per well), gently mixed, incubated for 15 min at room temperature and added to the cells. The cells were treated at 37° C. with compound A (10^−12−10^−5 M) or DMSO for 24 h before stimulation with TNF-α (50 ng/ml) for 6 h.
The cell lysate was assayed for luciferase activity using the Dual luciferase kit as described by the manufacturer (Promega). All transfections were performed in triplicate. Firefly luciferase activity was corrected for differences in transfection efficiency by normalizing it to the measured Renilla luciferase activity.
NF-κB activity was measured by the luciferase assay described in Example 1.

PC-3 cells = assay: DNA synthesis (tritiated thymidine incorporation) in PC-3 cells; format: cell-based; conditions: Homo sapiens, 144 h incubation, mean ± SD of two to four experiments
Method: as §1

HT-1080 cells = assay: DNA synthesis (tritiated thymidine incorporation) in HT-1080 cells; format: cell-based; conditions: Homo sapiens, 144 h incubation, mean ± SD of two to four experiments
Method: as §1

NYH Xenografts = assay: NYH xenografts in nude mice, tumour growth; format: in vivo, NMRI nu/nu mice
Method: as §2
NYH Xenografts. NMRI nu/nu mice were injected with 1×10^7 cells in 0.2 ml media s.c. in both flanks and tumour growth was measured twice weekly. The tumour area was used as expression of the tumour size and was calculated from two perpendicular diameters measured with a digital caliper. Compound A was given for fourteen consecutive days by oral gavage from day 4-6 when the tumour size was 24-30 mm^2. Each treatment group consisted of 10 mice.
as §3
A=(overall mean tumour size at baseline+mean trend of treatment*intended days of treatment)
B=(overall mean tumour size at baseline+mean trend of control*intended days of treatment)
Overall mean tumour size at baseline=pooling all treatments this is the mean of all baseline values. For each mouse the baseline value is calculated as the square root of the (mean) area of the tumour(s).
Significance was tested with the Bonferroni correction. This correction is a method for adjusting (lowering) the significance level so the overall finding of one significant difference due to chance is around 5 percent.

With `N#CNC(=Nc1ccncc1)NCCCCCCOc1ccc(Cl)cc1` [compound A, N-(6-(4-chlorophenoxy)hexyl)-N′-cyano-N″-(4-pyridyl)guanidine] the “LPS-induced IκB degradation” value (IκBα, IκBβ) was “much slower rate”, the IC50 (NYH SCLC cells; NYH SCLC cells, 144 h incubation, mean ± SD of two to four experiments, read-out: DNA synthesis (IC50 nM)) was 0.64 ± 0.06 nM and the IC50 (NYH SCLC cells; incorporation of tritiated thymidine in NYH SCLC cells, read-out: NYH proliferation in vitro (IC50 nM)) was 0.64 ± 0.06 nM. The “In vivo xenografts in nude mice T/C (%)” value (HT 1080 Xenografts) was −77%, the IC50 (NF-κB) was 84 ± 33 nM and the IC50 (PC-3 cells) was 5.6 ± 0.3 nM. For the same compound, the IC50 (HT-1080 cells) was 5.6 ± 0.3 nM, the “In vivo xenografts in nude mice T/C (%)” value (NYH Xenografts; NYH SCLC xenograft, 50 mg/kg, oral gavage) was −100% and the “NYH tumor growth in vivo (T/C in %)” value (NYH Xenografts; nude mice with NYH SCLC tumours, 14 days of treatment with 20 mg/kg) was −44%.
